Experimental data: ChEMBL document CHEMBL1777809, “Osteogenic activity of diphenyl ether-type cyclic diarylheptanoids derived from Acer nikoense” (Bioorg Med Chem Lett, 2011)
Active and inactive are the calls of the source. No cut-off for these calls is given here.

Tests used:
[1] = system: MC3T3-E1; experiment: Induction of cells differentiation in mouse MC3T3-E1 cells assessed as increase in osteocalcin production after 14 days by EIA; assay type: functional, cell-based
[2] = system: MC3T3-E1; experiment: Induction of osteogenesis in mouse MC3T3-E1 cells assessed as cell differentiation at 30 uM after 6 days by alkaline phosphatase activity assay; assay type: functional, cell-based
[3] = Cytotoxicity against mouse MC3T3-E1 cells at 30 uM after 6 days; assay type: cell-based; settings: mc3t3-e1, 144 h
[4] = system: MC3T3-E1; experiment: Induction of cells differentiation in mouse MC3T3-E1 cells assessed as increase in mineralization after 14 days by Alizarin Red S staining; assay type: functional, cell-based
[5] = system: RAW264; experiment: Induction of osteoclast differentiation in mouse RAW264 cells assessed as TRAP activity; assay type: functional, cell-based
[6] = system: MC3T3-E1; experiment: Induction of osteogenesis in mouse MC3T3-E1 cells assessed as increase in alkaline phosphatase activity after 6 days; assay type: functional, cell-based
[7] = species: Mus musculus; experiment: Induction of osteogenesis in mouse primary calvarial cells assessed as increase in alkaline phosphatase activity measured by ALP staining after 14 days; assay type: functional
[8] = system: MC3T3-E1; experiment: Induction of osteogenesis in mouse MC3T3-E1 cells assessed as increase in alkaline phosphatase activity at 30 uM after 6 days in presence of 50 ng/ml noggin BMP antagonist; assay type: functional, cell-based
[9] = system: MC3T3-E1; experiment: Induction of osteogenesis in mouse MC3T3-E1 cells assessed as increase in alkaline phosphatase activity at 30 uM after 6 days in presence of 0.1 uM LDN-193289 BMP receptor kinase inhibitor; assay type: functional, cell-based
[10] = system: MC3T3-E1; experiment: Induction of osteogenesis in mouse MC3T3-E1 cells assessed as increase in alkaline phosphatase activity at 30 uM after 6 days in presence of 5 uM SB203580 p38 MAPK inhibitor; assay type: functional, cell-based

Structure (SMILES) | Activity [1] | Activity [2] | Activity [3] | Activity [4] | Activity [5] | Activity [6] | Activity [7] | Activity [8] | Activity [9] | Activity [10]
OC[C@H]1O[C@H](Oc2ccc3cc2Oc2ccc(cc2)CC[C@@H](O)CCCC3)[C@H](O)[C@@H](O)[C@@H]1O [ACEROSIDE I] | Active | Active | Non-toxic | Dose-dependent effect | inactive |  |  |  |  | 
OC[C@@]1(O)CO[C@@H](OC[C@H]2O[C@@H](O[C@@H]3CCCCc4ccc(O)c(c4)Oc4ccc(cc4)CC3)[C@H](O)[C@@H](O)[C@@H]2O)[C@@H]1O [ACEROSIDE III] |  | Active | Non-toxic |  | inactive |  |  |  |  | 
C[C@H](O)CCc1ccc(O)cc1 |  | inactive | Non-toxic |  | inactive |  |  |  |  | 
OC[C@H]1O[C@@H](Oc2ccc3cc2Oc2ccc(cc2)CCCC[C@@H](O)CC3)[C@H](O)[C@@H](O)[C@@H]1O [ACEROSIDE B1] | Active | Active | Non-toxic | Dose-dependent effect | inactive |  |  |  |  | 
Oc1cc(O)c2c(c1)O[C@H](c1ccc(O)c(O)c1)[C@@H](O)C2 [CIANIDANOL] |  |  | Non-toxic |  | inactive |  |  |  |  | 
Oc1ccc(CCCC[C@@H](O)CCc2ccc(O)cc2)cc1 |  |  | Toxic |  | inactive |  |  |  |  | 
Oc1ccc2cc1Oc1ccc(cc1)CCCC[C@@H](O)CC2 | Active | Active | Non-toxic | Dose-dependent effect | inactive |  |  |  |  | 
Oc1ccc2cc1Oc1ccc(cc1)CC[C@H](O)CCCC2 [ACEROGENIN A] | Active | Active | Non-toxic | Dose-dependent effect | inactive | Dose-dependent effect | Active | inactive | inactive | inactive
